Data taken from patent US20210038668A1, “TRADITIONAL CHINESE MEDICINE COMPOSITION FOR PREVENTING AND/OR TREATING ISCHEMIC REPERFUSION INJURY” (TASLY PHARMACEUTICAL GROUP CO., LTD., priority 2018, published 2021).

How the values were obtained:
Type in all cases: in vivo, C57BL/6 mice
[1] = system: mice with carotid artery thrombus; assay: Survival rate within 24 hours after administration; details: tPA 10 mg/kg alone
Description: Mice were anesthetized via intraperitoneal injection by pentobarbital sodium (2%, 45 mg/kg), and neck kin was sterilized. A median incision was cut on the neck, exposed and isolated to obtain arteria carotis communis; a waterproof cushion was used to isolate arteria carotis communis with the length of about 2.5-3 mm from surrounding tissues. The isolated arteria carotis communis was wrapped by a filter paper soaked by 10% FeCl3 for about 1 mm (width), and the filter paper was removed 3 minutes later, the outside of blood vessel was washed by 0.9% normal saline. The waterproof cushion was removed. The neck incision was sutured. The start of Fe3+ stimulation was defined as the beginning of ischemia, and those mice meeting the following conditions were selected into the group: the blood vessel was blocked at the maximum diameter of the neck thrombus 10 minutes after ischemia; the blood flow of the carotid artery distal end was less than 20% of the base value 15 minutes after ischemia; and the thrombus was stable 4.5 hours after ischemia (before reperfusion); the carotid artery vessel at 60% and more of the diameter was blocked by the maximum diameter of the thrombus.
Mice were treated by medicaments or normal saline according to random grouping results 4.5 hours after ischemia. Mice femoral vein was intubated, and left femoral vein was injected tPA (tissue plasminogen activator) or normal saline; right femoral vein was injected the traditional Chinese medicinal composition of the present invention or normal saline; 10% of the total dose was injected via an injection pump, and the rest 90% were continuously injected intravenously for 1 hour with the rate of 0.1 ml/h. Three proportion groups were selected to the traditional Chinese medicinal composition of the present invention respectively below:
The survival rate, neurological scoring, change of carotid artery ischemia size and change of cerebral blood flow perfusion of mice after reperfused for 24 hours were recorded; and the optimal drug concentration was selected for further analysis.

[2] = system: Occludin; assay: Western blotting of Occludin, cortex of ischemic penumbra; details: brain tissue 24 hours after administration, sham = 1.00; tPA 10 mg/kg alone; T541 20 mg/kg + tPA 10 mg/kg
Description: After reperfused for 24 hours, mice were perfused by normal saline; Western blotting analysis was conducted to the penumbra field of infarcted right cerebral cortex. After perfused, mice brain tissue was taken out; cerebellum and prefrontal lobe were cut off; the brain tissue of right brain close to 1 cm of the central joint of left and right hemispheres along the sagittal view; infarcted penumbra field of the rest tissues was cut off along an 45° angle; the cerebral cortex of the penumbra field was peeled off and preserved at low temperature. Right cerebral cortex was taken and added 1×RIPA lysate and a Cocktail protease inhibitor (1:100, Cell Signaling Technology, US) for full pyrolysis and ultrasonic treatment, and then 17000 g were centrifuged for 30 minutes. Supernatant was taken and added 5×loading buffer by volume, boiled for 20 minutes in boiling water, and then preserved at −80° C. Excessive supernatant was taken out and quantified by a BCA protein quantification liquor (ThermoScientific, US) to measure absorbance value at 560 nm of ELIASA and to calculate the protein concentration according to a standard curve. […] The density of electrophoretic strips was analyzed by an image analysis software Quantityone. […]

[3] = system: cerebral cortex vessels and neurons in penumbra; assay: Transmission electron microscopy of cerebral cortex; details: 24 h after administration
Description: Transmission electron microscope (IEM): after reperfused for 24 hours, anesthetized mice were perfused 3% glutaraldehyde for 40 minutes via ventriculus sinister at a rate of 3 ml/min; the brain was taken, and the mice right cortex was cut into small pieces (1 mm×1 mm×1 mm); small pieces were immobilized in 3% glutaraldehyde for 30 minutes at room temperature or stored over night at 4° C. The brain pieces were washed on a table containing sucrose for 3 times for 15 minutes, immobilized by osmic acid for 2 hours at room temperature, washed by 0.2; PBS for 3 times for 15 minutes, dehydrated for 15 minutes respectively by 30%, 50%, 70% and 90% acetone, and dehydrated for 15 minutes for 15 minutes by 100% acetone, then preimpregnated into a pre-embedding agent mixed by 100% acetone and embedding agent according to a ratio of 1:1; and kept over the night at 37° C.; then brain pieces were impregnated by a pure embedding agent for 24 hours at 37° C., and cured for 48 hours, then naturally cooled; afterwards, brain pieces were trimmed and cut into slices with the thickness of 60 nm. The slices were stained by uranyl acetate and lead citrate, and observed and shoot by a IEM (JEM 1230, JEOL, Tokyo, Japan).

[4] = T141 12 mg/kg, T582 15 mg/kg each + tPA 10 mg/kg
[5] = T541 20 mg/kg, T141 12 mg/kg, T582 15 mg/kg each + tPA 10 mg/kg
[6] = tPA alone, T541 combined with tPA

tPA: tissue-type plasminogen activator (tPA) for thrombolysis
survival rate (%), 6 h after administration [1, 4]: 70.00%
survival rate (%), 12 h after administration [1, 4]: 60.00%
survival rate (%), 18 h after administration ([1]; T541 20 mg/kg + tPA 10 mg/kg): 50.00%
survival rate (%), 0 h after administration [1, 5]: 100.00%
survival rate (%), 24 h after administration [1, 5]: 50%
Occludin/β-actin [2]: 0.38 ± 0.02
TEM: vascular endothelium and perivascular edema (in words) ([3]; tPA 10 mg/kg alone, T541 20 mg/kg + tPA): vascular endothelium is rough, and has obvious edema gap with surrounding tissues
TEM: endothelial cell adhesion structure of cerebral cortex vessels (in words) [3, 6]: the close adhesion structure of cerebral cortex vessels in penumbra field is opened
TEM: neurons of cerebral cortex in penumbra (in words) [3, 6]: bodies of neuron shrink and deform
